We go through 10 compounds from patent US4962109A, “Insecticidally and acaricidally active pyrimidine esters and intermediates therefor” (Imperial Chemical Industries PLC, priority 1985, dated 1990).

What all share (format): in vivo
In experiment [1] the test system is Tetranychus urticae (spider mites - adult). Briefly: Contact test on spider mites - adult (TUa), French bean leaf, mortality. The conditions noted are these: 72 h, 500 ppm, contact, 3 days, read-out: TUa grading of mortality. A digest of the protocol:
(§1)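 Compound dissolved in acetone, diluted with water containing 0.01% by weight wetting agent to 500, 250 or 100 ppm. Pests held on host plant or foodstuff; pests and/or medium treated. Mortality scored one to three days later as grade A (80-100%), B (50-79%) or C (<50%) mortality or knockdown.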

For experiment [2], the system named is Tetranychus urticae (spider mites - ova). Kind of experiment: Contact test on spider mites - ova (TUe), French bean leaf, mortality. The conditions noted are these: 144 h, 500 ppm, contact, 6 days, read-out: TUe grading of mortality. A digest of the protocol:
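Graded read-out: A 80-100%, B 50-79%, C below 50% mortality or knockdown, assessed usually 1-3 days post-treatment. Liquid preparations at 500, 250 or 100 ppm by weight, from acetone solution diluted in water with 0.01% wetting agent, applied to pests and/or their host plant or food medium.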

A further experiment deals with Myzus persicae (aphids). Briefly: Contact test on aphids (MP), Chinese Cabbage leaf, mortality. As to conditions: 72 h, 500 ppm, contact, 3 days, read-out: MP grading of mortality. The essentials:
as §1

Experiment [3] deals with Nephotettix cincticeps (green leaf hopper - nymphs). Kind of experiment: Contact test on green leaf hopper nymphs (NC), Rice plant, mortality. The conditions noted are these: 48 h, 500 ppm, contact, 2 days, read-out: NC grading of mortality. The essentials:
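Product dissolved in acetone, diluted in water with 0.01% wetting agent to 500, 250 or 100 ppm; nymphs and/or host rice plants treated. Mortality or knockdown assessed 1–3 days later, graded A (80-100%), B (50-79%), C (<50%).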

Experiment [4] deals with Musca domestica (houseflies - adults). Kind of experiment: Knockdown test on houseflies - adults (MD/KD), Cotton wool/sugar. The conditions noted are these: 500 ppm, 4 hours, read-out: MD/KD grading of knockdown. A digest of the protocol:
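Adult houseflies exposed to the compound at 500, 250 or 100 ppm in acetone/water with 0.01% wetting agent, on a cotton wool/sugar medium. Knockdown and mortality assessed, graded A (80-100%), B (50-79%) or C (<50%).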

Experiment [5] shares this test system. Kind of experiment: Contact test on houseflies - adults (MD), Cotton wool/sugar, mortality. The conditions noted are these: 72 h, 500 ppm, contact, 3 days, read-out: MD grading of mortality. A digest of the protocol:
as §1

Experiment [6] has as its system Blattella germanica (cockroach nymphs). Kind of experiment: Contact test on cockroach nymphs (BG/C), Plastic pot, mortality. As to conditions: 48 h, 500 ppm, contact, 2 days, read-out: BG/C grading of mortality. A digest of the protocol:
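Cockroach nymphs and/or their medium were treated with aqueous preparations at 500, 250 or 100 ppm (acetone solution diluted in water with 0.01% Lissapol NX wetting agent). Mortality or knockdown was assessed typically 1–3 days later and graded A (80–100%), B (50–79%) or C (<50%).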

Experiment [7] has as its system Heliothis virescens (tobacco budworm - larvae). Kind of experiment: Residual test on tobacco budworm larvae (HV), Cotton leaf, mortality. The conditions noted are these: 48 h, read-out: HV grading of mortality. The essentials: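 Product in acetone diluted with water containing 0.01% Lissapol NX, at 500, 250 or 100 ppm; pests and/or host medium (here cotton leaf) treated. Mortality scored one to three days later, graded A (80-100%), B (50-79%), C (<50%).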

Experiment [8] concerns Spodoptera exigua (lesser army worm - larvae). Kind of experiment: Residual test on lesser army worm larvae (SP), Cotton leaf, mortality. As to conditions: 48 h, 500 ppm, residual, 2 days, read-out: SP grading of mortality. A digest of the protocol: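 Product dissolved in acetone and diluted in water with 0.01% wetting agent to 500, 250 or 100 ppm; larvae and/or cotton leaf host treated. Mortality or knockdown scored one to three days later and graded A (80-100%), B (50-79%) or C (<50%).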

The test system of experiment [9] is Diabrotica balteata (rootworm larvae). Briefly: Residual test on rootworm larvae (DB), Filter paper/maize seed, mortality. The conditions noted are these: 48 h, 500 ppm, residual, 2 days, read-out: DB grading of mortality. The essentials: as §1

Take `CC(C)(C)c1ncc(C(C(=O)OCc2cccc(Oc3ccc(Cl)cc3)c2)C(C)(C)C)cn1` (racemic) [Compound 180, 3-(4-chlorophenoxy)benzyl (RS)-2-[2-(1,1-dimethylethyl)pyrimidin-5-yl]-3,3-dimethylbutanoate]: the mortality at 500 ppm in experiment [1] was 80 to 100%; in experiment [2], under 50%; in the experiment with Myzus persicae (aphids), 80 to 100%; in experiment [3], 80 to 100%; in experiment [5], 80 to 100%; in experiment [6] it was under 50%. In addition, the mortality at 500 ppm was 80 to 100% in experiment [7], 80 to 100% in [8] and under 50% in experiment [9]. In experiment [4], the pest or weed control at 500 ppm was in the range of 80 to 100%.

On to `COCc1c(F)c(F)c(COC(=O)C(c2cnc(C(C)C)nc2)C(C)(C)C)c(F)c1F` (racemic) [Compound 131, 2,3,5,6-tetrafluoro-4-(methoxymethyl)benzyl (RS)-2-[2-(1-methylethyl)-pyrimidin-5-yl]-3,3dimethylbutanoate], for which the mortality at 500 ppm in experiment [1] is 80 to 100%; in [2], 80 to 100%; in the experiment with Myzus persicae (aphids), 80 to 100%; in [3], 80 to 100%; in experiment [5] it was under 50%; in experiment [6], under 50%. Moreover, the mortality at 500 ppm in [7] was under 50%; in experiment [8], 80 to 100%; in experiment [9], 80 to 100%. Further, the pest or weed control at 500 ppm in experiment [4] lay in the range of 80 to 100%.

Take `C[C@@H](OC(=O)[C@@H](c1cnc(N(C)C)nc1)C(C)(C)C)c1cccc(Oc2ccccc2)n1` (racemic) [Compound 198, (RS)-1-(6-phenoxypyrid-2-yl)ethyl (RS)-2-[2-(N,N-dimethylamino)pyrimidin-5-yl]-3,3-dimethylbutanoate]: the mortality at 500 ppm in experiment [1] is 80 to 100%; in experiment [2] it was under 50%; in the experiment on Myzus persicae (aphids) it was 80 to 100%; in [3], 80 to 100%; in experiment [5] it was under 50%; in [6], 80 to 100%. Moreover, the mortality at 500 ppm in experiment [7], in [8] and in [9] was 80 to 100% each time. In experiment [4], the pest or weed control at 500 ppm lay in the range of 80 to 100%.

Regarding `CSc1c(COC(=O)C(c2cnc(C(C)(C)C)nc2)C(C)(C)C)cc(F)c(C)c1F` (racemic) [Compound 182, 4-methyl-2-thiomethyl-3,5-difluorobenzyl (RS)-2-[2-(1,1-dimethylethyl)pyrimidin-5-yl]-3,3dimethylbutanoate], the mortality at 500 ppm was 80 to 100% in experiment [1]; under 50% in experiment [2]; 50 to 79% with Myzus persicae (aphids); 80 to 100% in [3]; under 50% in [5]; under 50% in experiment [6]. For the same compound, the mortality at 500 ppm in [7], in experiment [8] and in experiment [9] was under 50% in each case. Further, the pest or weed control at 500 ppm in experiment [4] is under 50%.

Turning to `COCc1c(F)c(F)c(COC(=O)C(c2cnc(-c3ccccc3)nc2)C(C)(C)C)c(F)c1F` (racemic) [Compound 161, 2,3,5,6-tetrafluoro-4-(methoxymethyl)benzyl (RS)-2-(2-phenylpyrimidin-5-yl)-3,3-dimethylbutanoate], the mortality at 500 ppm in experiment [1] is 80 to 100%; in experiment [2] it was 80 to 100%; with Myzus persicae (aphids), 80 to 100%; in [3] it was 80 to 100%; in experiment [5] it was 80 to 100%; in experiment [6], 50 to 79%. In addition, the mortality at 500 ppm in [7] is under 50%; in experiment [8] it was 80 to 100%; in [9], 50 to 79%. Also, the pest or weed control at 500 ppm in [4] lay in the range of 80 to 100%.

With `COCc1c(F)c(F)c(COC(=O)C(c2cnc(C(C)C)nc2)C(C)(C)C)c(OC)c1F` (racemic) [Compound 76, 3,5,6-trifluoro-2-methoxy-4-(methoxymethyl)benzyl (RS)-2-[2-(1-methylethyl)pyrimidin-5-yl]-3,3-dimethylbutanoate], the mortality at 500 ppm is 80 to 100% in experiment [1]; under 50% in experiment [2]; 80 to 100% with Myzus persicae (aphids); 80 to 100% in experiment [3]; 50 to 79% in experiment [5]; 50 to 79% in experiment [6]. For the same compound, the mortality at 500 ppm is 80 to 100% in [7], 80 to 100% in experiment [8] and under 50% in [9]. Moreover, the pest or weed control at 500 ppm in experiment [4] is 80 to 100%.

Consider `CC(C)(C)c1ncc(C(C(=O)OCc2c(F)c(F)c(CC3CC3)c(F)c2F)C(C)(C)C)cn1` (racemic) [Compound 179, 4-(cyclopropylmethyl)-2,3,5,6-tetrafluorobenzyl (RS)-2-[2-(1,1-dimethylethyl)pyrimidin-5-yl]-3,3-dimethylbutanoate], for which the mortality at 500 ppm in experiment [1] was 80 to 100%; in [2], under 50%; in the experiment on Myzus persicae (aphids), 80 to 100%; in [3], 80 to 100%; in experiment [5] it was under 50%; in experiment [6], under 50%. In addition, the mortality at 500 ppm in experiment [7], in experiment [8] and in experiment [9] was under 50% in each case. Moreover, in experiment [4], the pest or weed control at 500 ppm is under 50%.

On to `CC(C)(C)c1ncc(C(C(=O)OCc2c(F)c(F)c(CN3CCCCC3)c(F)c2F)C(C)(C)C)cn1` (racemic) [Compound 177, 4-[(piperidin-1-yl)methyl]-2,3,5,6-tetrafluorobenzyl (RS)-2-(2-(1,1-dimethylethyl)pyrimidin-5-yl)-3,3-dimethylbutanoate], for which the mortality at 500 ppm in experiment [1] was 80 to 100%; in [2] it was under 50%; in the experiment with Myzus persicae (aphids) it was 80 to 100%; in experiment [3], 80 to 100%; in experiment [5], under 50%; in experiment [6] it was under 50%. Also, the results for the mortality at 500 ppm in experiment [7], in experiment [8] and in [9] were under 50%, 80 to 100% and under 50%, respectively. Besides, the pest or weed control at 500 ppm in experiment [4] lay within 80 to 100%.

In the case of `CCOCc1c(F)c(F)c(COC(=O)C(c2cnc(C(C)(C)C)nc2)C(C)(C)C)c(OC)c1F` (racemic) [Compound 187, 2,3,5-trifluoro-6-methoxy-4-(ethoxymethyl)benzyl (RS)-2-[2-(1,1-dimethylethyl)pyrimidin-5-yl]-3,3-dimethylbutanoate], the mortality at 500 ppm is 80 to 100% in experiment [1]; under 50% in experiment [2]; 80 to 100% in the experiment on Myzus persicae (aphids); 80 to 100% in experiment [3]; 50 to 79% in experiment [5]; under 50% in [6]. For the same compound, the mortality at 500 ppm was 50 to 79% in experiment [7], 80 to 100% in experiment [8] and under 50% in [9]. Moreover, the pest or weed control at 500 ppm in experiment [4] fell in the range of 80 to 100%.

Turning to `CSCc1c(F)c(F)c(COC(=O)C(c2cnc(C(C)(C)C)nc2)C(C)(C)C)c(F)c1F` (racemic) [Compound 169, 4-(methylthiomethyl)-2,3,5,6-tetrafluorobenzyl (RS)-2-[2-(1,1-dimethylethyl)pyrimidin-5-yl]-3,3-dimethylbutanoate], the mortality at 500 ppm in experiment [1] is 80 to 100%; in experiment [2], 80 to 100%; in the experiment with Myzus persicae (aphids) it was 80 to 100%; in experiment [3], 80 to 100%; in experiment [5] it was 80 to 100%; in experiment [6], under 50%. Further, the mortality at 500 ppm in experiment [7] was under 50%; in experiment [8], 80 to 100%; in experiment [9], under 50%. Besides, in experiment [4], the pest or weed control at 500 ppm lay within 80 to 100%.
